Values quoted from earlier work as cited in paper PMC13517605, “In Vitro Three-Dimensional Human Liver Model for Drug-Induced Liver and Bile Duct Injury Prediction” (Toxics, 2026).

Conditions: maximum plasma concentration in humans

SMILES: [H]/N=C(/N)N[C@H]1[C@H](O)[C@@H](O)[C@H](O[C@@H]2O[C@@H](C)[C@](O)(C=O)[C@H]2O[C@@H]2O[C@@H](CO)[C@H](O)[C@@H](O)[C@@H]2NC)[C@@H](N/C(N)=N\[H])[C@@H]1O [Streptomycin, streptomycin]
- Cmax: 52.3 µM
